Measurements reported in paper PMC3880613 (Journal of medicinal chemistry, 2013).

How the values were obtained:
[1] = system: PC43-10 cells (hRFC); details: read-out: IC50 growth inhibition PC43-10; cited from earlier work
[2] = molecular target: FRβ (Homo sapiens, UniProt P14207); assay: FR binding assay, competition with [3H]folic acid on D4 cells; details: D4 CHO cells, pH 7.4, [3H]folic acid 50 nM, 0°C; Figure 3, in words
[3] = molecular target: FRα (Homo sapiens, UniProt P15328); assay: FR binding assay, competition with [3H]folic acid on RT16 cells; details: RT16 CHO cells, pH 7.4, [3H]folic acid 50 nM, 0°C; Figure 3, in words
[4] = system: KB human nasopharyngeal carcinoma cells (hRFC/FRα/hPCFT); assay: Growth inhibition assay, KB human tumor cells; details: 96 h, read-out: IC50 growth inhibition KB

FRα, sequence (P15328 25-257): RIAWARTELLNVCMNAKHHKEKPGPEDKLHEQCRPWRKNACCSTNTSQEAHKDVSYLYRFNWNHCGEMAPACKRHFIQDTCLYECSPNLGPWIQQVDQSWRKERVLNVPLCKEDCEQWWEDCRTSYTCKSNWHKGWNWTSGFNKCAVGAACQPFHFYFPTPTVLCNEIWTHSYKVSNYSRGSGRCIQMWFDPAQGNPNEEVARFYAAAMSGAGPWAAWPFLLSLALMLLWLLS
FRβ, sequence (P14207 17-255): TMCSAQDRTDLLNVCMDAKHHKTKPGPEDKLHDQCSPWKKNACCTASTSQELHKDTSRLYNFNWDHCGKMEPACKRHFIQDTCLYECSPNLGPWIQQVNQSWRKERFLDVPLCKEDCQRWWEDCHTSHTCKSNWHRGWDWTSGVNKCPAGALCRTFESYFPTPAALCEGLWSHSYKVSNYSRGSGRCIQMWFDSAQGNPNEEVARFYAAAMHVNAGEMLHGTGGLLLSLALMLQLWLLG

SMILES: Nc1nc2[nH]c(CCCCc3ccc(C(=O)N[C@@H](CCC(=O)O)C(=O)O)cc3)cc2c(=O)[nH]1 [2b]
- IC50 [1]: > 1000 nM

SMILES: Nc1nc2[nH]c(CCCCCCCCC(=O)N[C@@H](CCC(=O)O)C(=O)O)cc2c(=O)[nH]1 [3d, (S)-2-(9-(2-Amino-4-oxo-4,7-dihydro-3H-pyrrolo[2,3-d]pyrimidin-6-yl)nonanamido)pentanedioic acid]
- Relative binding affinity to FRβ (folic acid = 1.0) [2]: approximating those for compounds 2a and 2b
- Relative binding affinity to FRα (folic acid = 1.0) [3]: approximating those for compounds 2a and 2b

SMILES: Nc1nc2[nH]c(CCCCCC(=O)O)cc2c(=O)[nH]1 [7e, 6-(2-Amino-4-oxo-4,7-dihydro-3H-pyrrolo[2,3-d]pyrimidin-6-yl)hexanoic acid]
- IC50 [4]: > 1000 nM

SMILES: Nc1nc2[nH]c(CCCCCCC(=O)O)cc2c(=O)[nH]1 [7f, 7-(2-Amino-4-oxo-4,7-dihydro-3H-pyrrolo[2,3-d]pyrimidin-6-yl)heptanoic acid]
- IC50 [4]: > 1000 nM

SMILES: Nc1nc2[nH]c(CCCCCCCC(=O)O)cc2c(=O)[nH]1 [7g, 8-(2-Amino-4-oxo-4,7-dihydro-3H-pyrrolo[2,3-d]pyrimidin-6-yl)octanoic acid]
- IC50 [4]: > 1000 nM

SMILES: Nc1nc2[nH]c(CCCCCCCCC(=O)O)cc2c(=O)[nH]1 [7h, 9-(2-Amino-4-oxo-4,7-dihydro-3H-pyrrolo[2,3-d]pyrimidin-6-yl)nonanoic acid]
- IC50 [4]: > 1000 nM
- Relative binding affinity to FRα (folic acid = 1.0) [3]: detectable binding
